Measured values published in the NIST ThermoML archive (doi:10.1016/j.jct.2016.10.034).

Assay: xn = mol fraction of the nth substance listed
Details: 100 kPa, Liquid; for viscosity: Falling or rolling sphere viscometry; for mass density: Vibrating tube method

CC[N+]1(C)CCOCC1.O=C([O-])CO [N-ethyl-N-methylmorpholinium glycolate] + O
Details | mass density [kg/m3] | viscosity [mPa·s]
298.15 K, x1 = 0.0933 | 1128.6 | –
298.15 K, x1 = 0.1688 | 1170.3 | 21.4
298.15 K, x1 = 0.2209 | 1186.5 | 43.1
298.15 K, x1 = 0.288 | 1199.7 | 95.3
298.15 K, x1 = 0.3907 | 1211.3 | 359
298.15 K, x1 = 0.4809 | 1217.5 | 842
298.15 K, x1 = 0.5793 | 1221.9 | 1779
298.15 K, x1 = 0.6669 | 1224.6 | –
298.15 K, x1 = 0.7573 | 1226.9 | –
298.15 K, x1 = 0.8256 | 1228 | –
303.15 K, x1 = 0.0933 | 1125.6 | –
303.15 K, x1 = 0.1688 | 1167 | 17
303.15 K, x1 = 0.2209 | 1183.1 | 32.9
303.15 K, x1 = 0.288 | 1196.3 | 69.7
303.15 K, x1 = 0.3907 | 1207.9 | 224
303.15 K, x1 = 0.4809 | 1214.1 | 494
303.15 K, x1 = 0.5793 | 1218.5 | 1005
303.15 K, x1 = 0.6669 | 1221.2 | 1723
303.15 K, x1 = 0.7573 | 1223.6 | –
303.15 K, x1 = 0.8256 | 1224.8 | –
308.15 K, x1 = 0.0933 | 1122.6 | –
308.15 K, x1 = 0.1688 | 1163.7 | 13.9
308.15 K, x1 = 0.2209 | 1179.6 | 25.8
308.15 K, x1 = 0.288 | 1192.8 | 52.3
308.15 K, x1 = 0.3907 | 1204.5 | 158
308.15 K, x1 = 0.4809 | 1210.7 | 339
308.15 K, x1 = 0.5793 | 1215.1 | 678
308.15 K, x1 = 0.6669 | 1217.9 | 1151
308.15 K, x1 = 0.7573 | 1220.2 | 1866
308.15 K, x1 = 0.8256 | 1221.5 | –
313.15 K, x1 = 0.0933 | 1119.5 | –
313.15 K, x1 = 0.1688 | 1160.4 | 11.3
313.15 K, x1 = 0.2209 | 1176.2 | 20.1
313.15 K, x1 = 0.288 | 1189.4 | 40.5
313.15 K, x1 = 0.3907 | 1201.1 | 118
313.15 K, x1 = 0.4809 | 1207.3 | 250
313.15 K, x1 = 0.5793 | 1211.8 | 496
313.15 K, x1 = 0.6669 | 1214.6 | 838
313.15 K, x1 = 0.7573 | 1216.9 | 1354
313.15 K, x1 = 0.8256 | 1218.2 | 1882
318.15 K, x1 = 0.0933 | 1116.4 | –
318.15 K, x1 = 0.1688 | 1157 | 9.61
318.15 K, x1 = 0.2209 | 1172.8 | 16.8
318.15 K, x1 = 0.288 | 1186 | 32
318.15 K, x1 = 0.3907 | 1197.7 | 85.6
318.15 K, x1 = 0.4809 | 1204 | 174
318.15 K, x1 = 0.5793 | 1208.5 | 334
318.15 K, x1 = 0.6669 | 1211.2 | 555
318.15 K, x1 = 0.7573 | 1213.7 | 884
318.15 K, x1 = 0.8256 | 1214.9 | 1219
323.15 K, x1 = 0.0933 | 1113.2 | –
323.15 K, x1 = 0.1688 | 1153.6 | 8.15
323.15 K, x1 = 0.2209 | 1169.4 | 13.9
323.15 K, x1 = 0.288 | 1182.6 | 25.5
323.15 K, x1 = 0.3907 | 1194.3 | 65.4
323.15 K, x1 = 0.4809 | 1200.6 | 130
323.15 K, x1 = 0.5793 | 1205.2 | 246
323.15 K, x1 = 0.6669 | 1207.9 | 405
323.15 K, x1 = 0.7573 | 1210.3 | 642
323.15 K, x1 = 0.8256 | 1211.7 | 882
328.15 K, x1 = 0.0933 | 1110 | –
328.15 K, x1 = 0.1688 | 1150.2 | 6.97
328.15 K, x1 = 0.2209 | 1166 | 11.7
328.15 K, x1 = 0.288 | 1179.2 | 20.8
328.15 K, x1 = 0.3907 | 1191 | 54
328.15 K, x1 = 0.4809 | 1197.3 | 98.6
328.15 K, x1 = 0.5793 | 1201.9 | 179
328.15 K, x1 = 0.6669 | 1204.7 | 283
328.15 K, x1 = 0.7573 | 1207 | 435
328.15 K, x1 = 0.8256 | 1208.5 | 587
333.15 K, x1 = 0.0933 | 1106.8 | –
333.15 K, x1 = 0.1688 | 1146.8 | 6
333.15 K, x1 = 0.2209 | 1162.6 | 9.79
333.15 K, x1 = 0.288 | 1175.8 | 17.3
333.15 K, x1 = 0.3907 | 1187.6 | 43.4
333.15 K, x1 = 0.4809 | 1194 | 77.6
333.15 K, x1 = 0.5793 | 1198.6 | 138
333.15 K, x1 = 0.6669 | 1201.5 | 217
333.15 K, x1 = 0.7573 | 1203.8 | 329
333.15 K, x1 = 0.8256 | 1205.2 | 441
338.15 K, x1 = 0.0933 | 1103.5 | –
338.15 K, x1 = 0.1688 | 1143.4 | 5.2
338.15 K, x1 = 0.2209 | 1159.2 | 8.55
338.15 K, x1 = 0.288 | 1172.4 | 14.6
338.15 K, x1 = 0.3907 | 1184.3 | 32.4
338.15 K, x1 = 0.4809 | 1190.7 | 59
338.15 K, x1 = 0.5793 | 1195.4 | 105
338.15 K, x1 = 0.6669 | 1198.3 | 165
338.15 K, x1 = 0.7573 | 1200.8 | 253
338.15 K, x1 = 0.8256 | 1202.1 | 340
343.15 K, x1 = 0.0933 | 1100.2 | –
343.15 K, x1 = 0.1688 | 1140 | 4.55
343.15 K, x1 = 0.2209 | 1155.8 | 7.41
343.15 K, x1 = 0.288 | 1169 | 12.4
343.15 K, x1 = 0.3907 | 1181 | 28.9
343.15 K, x1 = 0.4809 | 1187.5 | 49.6
343.15 K, x1 = 0.5793 | 1192.2 | 85.3
343.15 K, x1 = 0.6669 | 1195.1 | 131
343.15 K, x1 = 0.7573 | 1197.6 | 195
343.15 K, x1 = 0.8256 | 1199 | 258
348.15 K, x1 = 0.0933 | 1096.8 | –
348.15 K, x1 = 0.1688 | 1136.6 | 4.01
348.15 K, x1 = 0.2209 | 1152.4 | 6.46
348.15 K, x1 = 0.288 | 1165.7 | 10.7
348.15 K, x1 = 0.3907 | 1177.7 | 24.2
348.15 K, x1 = 0.4809 | 1184.2 | 40.4
348.15 K, x1 = 0.5793 | 1189 | 67.9
348.15 K, x1 = 0.6669 | 1192 | 102
348.15 K, x1 = 0.7573 | 1194.5 | 150
348.15 K, x1 = 0.8256 | 1195.9 | 196
